Assay results published in PubChem BioAssay AID1963845 (Molecular Pharmacology Branch, DTP, NCI, 2024).
Where “and” joins values, the source holds several entries; their conditions need not be identical. Identical values can stand only once.

System: 429239-143-T-J1-PDC complex spheroid viability
Test: Anticancer human tumor 429239-143-T-J1-PDC patient-derived small cell lung carcinoma cell line growth inhibition [POLQ]
Conditions: for viability, T/C: stronger effect = lower value
Description: Multicellular complex tumor spheroid response to Polymerase (POL) inhibitors (novobiocin, ART-558, RP6685) in combination with a variety of drugs and investigational agents in selected tumor cell lines
The POL inhibitors (novobiocin, ART-558, and RP6685) were evaluated both individually and in combination with standard of care and investigational anticancer small molecules within a complex spheroid model of solid tumors. . Complex spheroids include a stromal component modeled by human endothelial cells (HUVEC) and fibroblasts modeled by human mesenchymal stem cells (MSCs). The concentration ranges selected for each drug and investigational agent were based upon clinically achievable concentrations if the clinical Cmax of the agent was known.
Compounds. The drugs and investigational agents: novobiocin (NSC847541), ART-558 (NSC835418), RP-6685 (NSC848927), peposertib (NSC802822), ceralasertib (NSC780249), elimusertib (NSC800525), camonsertib (NSC841442), AZD-1390 (NSC803789), olaparib (NSC753686), talazoparib (NSC767125), rucaparib (NSC756644), sotorasib (NSC818433), MRTX-1133 (NSC836407), SN-38 (NSC673596), topotecan (NSC609699), epotoside (NSC141540), doxorubicin (NSC123127), gemcitabine (NSC613327), 5-fluorouracil (NSC19893), paclitaxel (NSC125973), vemurafenib (NSC761431), MSA-2 (NSC828583), SN-011 (NSC837082), adavosertib (NSC754352), prexasertib (NSC758257), carboplatin (NSC241240) and oxaliplatin (NSC266046), were obtained from the National Cancer Institute (NCI) Developmental Therapeutics Program Chemical Repository (21). The FDA-approved anticancer drug set is available from the Developmental Therapeutics Program at https://dtp.cancer.gov/organization/dscb/obtaining/. […] The stock solutions were prepared in dimethyl sulfoxide (DMSO, Sigma-Aldrich, St. Louis, MO, cat. D2650), except for the platinum compounds which were prepared in saline (Quality Biological, Gaithersburg, MD, cat. 114-055-101), at 800-fold the tested concentration and stored at -70 degrees C prior to their use. All drugs and investigational agents were tested over a range starting from a high concentration at or near the clinical Cmax and decreasing in half-log increments. If the clinical Cmax for an agent had not been determined, the highest concentration tested was 10 microM, except for SN-38, which was tested at a high concentration of 1 microM.
Cell Culture. All cells were maintained in an incubator at 37 degrees C and 5% CO2 with 95% humidity. The PDC lines were cultured according to standard operating procedures established by the NCI PDMR (https://pdmr.cancer.gov). Table 3 of the manuscript, lists the cell lines along with the number of the three cell types plated to form the mct-spheroids and media for tumor cell growth. After thawing, all PDC lines, except 997537-175-T-J1-PDC and 415267-285-R-J2-PDC, were cultured in Matrigel-coated flasks prepared with a working solution of 1X Ham's F-12 nutrient mix, without supplementation (Thermo Fisher Scientific, cat. 11765054), 100 U/mL penicillin-streptomycin (Thermo Fisher Scientific, cat. 15140122), and 2.5% Matrigel (Corning Inc., Corning, NY, cat. 354248) for the first three passages. The two PDC lines 997537-175-T-J1-PDC and 415267-285-R-J2-PDC were cultured on uncoated flasks. The 857933-349-R-J2-PDC line was cultured in 6C/Colon 1B media containing advanced DMEM/F-12 (Thermo Fisher Scientific, cat. 12634028), 10 mM HEPES (Thermo Fisher Scientific, cat. 15630080), 1X GlutaMAX supplement (Thermo Fisher Scientific, cat. 35050061), 0.1 mg/mL primocin (InvivoGen, San Diego, CA, cat. ant-pm-2), 10% defined fetal bovine serum, heat inactivated (HyClone Laboratories Inc., Logan, UT, cat. SH30070.03HI), 50% L-WRN conditioned media (ATCC, cat. CRL-3276), 1.25 mM N-Acetyl-L-cysteine (Sigma-Aldrich, cat. A9165), 10 mM nicotinamide (Sigma-Aldrich, cat. N0636), 1X B-27 supplement (Thermo Fisher Scientific, cat. 17504044), 1X N-2 supplement (Thermo Fisher Scientific, cat. […]

[1] = curve of first compound, second compound 0.0316 µM
[2] = curve of first compound, second compound 0.1 µM
[3] = curve of first compound, second compound 0.316 µM
[4] = curve of first compound, second compound 1 µM
[5] = curve of first compound, second compound 3.16 µM
[6] = curve of first compound, second compound 10 µM
[7] = second compound 0.0316 µM, first compound 0.0316 µM
[8] = second compound 0.0316 µM, first compound 0.1 µM
[9] = second compound 0.0316 µM, first compound 0.316 µM
[10] = second compound 0.0316 µM, first compound 1 µM
[11] = second compound 0.0316 µM, first compound 3.16 µM
[12] = second compound 0.0316 µM, first compound 10 µM
[13] = second compound 0.1 µM, first compound 0.0316 µM
[14] = second compound 0.1 µM, first compound 0.1 µM
[15] = second compound 0.1 µM, first compound 0.316 µM
[16] = second compound 0.1 µM, first compound 1 µM
[17] = second compound 0.1 µM, first compound 3.16 µM
[18] = second compound 0.1 µM, first compound 10 µM
[19] = second compound 0.316 µM, first compound 0.0316 µM
[20] = second compound 0.316 µM, first compound 0.1 µM
[21] = second compound 0.316 µM, first compound 0.316 µM
[22] = second compound 0.316 µM, first compound 1 µM
[23] = second compound 0.316 µM, first compound 3.16 µM
[24] = second compound 0.316 µM, first compound 10 µM
[25] = second compound 1 µM, first compound 0.0316 µM
[26] = second compound 1 µM, first compound 0.1 µM
[27] = second compound 1 µM, first compound 0.316 µM
[28] = second compound 1 µM, first compound 1 µM
[29] = second compound 1 µM, first compound 3.16 µM
[30] = second compound 1 µM, first compound 10 µM
[31] = second compound 3.16 µM, first compound 0.0316 µM
[32] = second compound 3.16 µM, first compound 0.1 µM
[33] = second compound 3.16 µM, first compound 0.316 µM
[34] = second compound 3.16 µM, first compound 1 µM
[35] = second compound 3.16 µM, first compound 3.16 µM
[36] = second compound 3.16 µM, first compound 10 µM
[37] = second compound 10 µM, first compound 0.0316 µM
[38] = second compound 10 µM, first compound 0.1 µM
[39] = second compound 10 µM, first compound 0.316 µM
[40] = second compound 10 µM, first compound 1 µM
[41] = second compound 10 µM, first compound 3.16 µM
[42] = second compound 10 µM, first compound 10 µM
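Note: luminescence signal used as surrogate measure of viable cells; spheroids exposed to compounds for seven days before readout.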
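Throughout, for viability, T/C: 100% = DMSO vehicle control viability as luminescence relative to vehicle.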

Compound: C=CC(=O)N1CCN(c2nc(=O)n(-c3c(C)ccnc3C(C)C)c3nc(-c4c(O)cccc4F)c(F)cc23)C(C)C1 (stereo unspecified) + COC1C(OC(N)=O)C(O)C(Oc2ccc3c(O)c(NC(=O)c4ccc(O)c(CC=C(C)C)c4)c(=O)oc3c2C)OC1(C)C
- IC50 [1]: > 10000 nM
- IC50 [2]: > 10000 nM
- IC50 [3]: > 10000 nM
- IC50 [4]: > 10000 nM
- IC50 [5]: > 10000 nM
- IC50 [6]: > 10000 nM
- viability, T/C [7]: 107%
- viability, T/C [8]: 89.5%
- viability, T/C [9]: 94%
- viability, T/C [10]: 94.6%
- viability, T/C [11]: 107%
- viability, T/C [12]: 112%
- viability, T/C [13]: 104%
- viability, T/C [14]: 94.3%
- viability, T/C [15]: 93.6%
- viability, T/C [16]: 104%
- viability, T/C [17]: 87.9%
- viability, T/C [18]: 97.7%
- viability, T/C [19]: 96.7%
- viability, T/C [20]: 90.8%
- viability, T/C [21]: 91.7%
- viability, T/C [22]: 91.7%
- viability, T/C [23]: 103%
- viability, T/C [24]: 101%
- viability, T/C [25]: 98.4%
- viability, T/C [26]: 94.6%
- viability, T/C [27]: 99.8%
- viability, T/C [28]: 96.6%
- viability, T/C [29]: 103%
- viability, T/C [30]: 101%
- viability, T/C [31]: 94.9%
- viability, T/C [32]: 107%
- viability, T/C [33]: 95.3%
- viability, T/C [34]: 95.3%
- viability, T/C [35]: 98.7%
- viability, T/C [36]: 103%
- viability, T/C [37]: 79.5%
- viability, T/C [38]: 84.8%
- viability, T/C [39]: 91.5%
- viability, T/C [40]: 87.7%
- viability, T/C [41]: 104%
- viability, T/C [42]: 103%

Compound: CCc1cc2c(N3CCc4c(cc(Cn5ccnc5)cc4-c4cn(C)nc4C(F)(F)F)C3=O)ccnc2c(OC)n1 + COC1C(OC(N)=O)C(O)C(Oc2ccc3c(O)c(NC(=O)c4ccc(O)c(CC=C(C)C)c4)c(=O)oc3c2C)OC1(C)C
- IC50 [1]: 2760 nM
- IC50 [2]: 2630 nM
- IC50 [3]: 2660 nM
- IC50 [4]: 2270 nM
- IC50 [5]: 1720 nM
- IC50 [6]: 843 nM
- viability, T/C [7]: 93.4%
- viability, T/C [8]: 96.9%
- viability, T/C [9]: 71.1%
- viability, T/C [10]: 68.2%
- viability, T/C [11]: 45.8%
- viability, T/C [12]: 39.6%
- viability, T/C [13]: 107%
- viability, T/C [14]: 93%
- viability, T/C [15]: 69.5%
- viability, T/C [16]: 74%
- viability, T/C [17]: 42.3%
- viability, T/C [18]: 32.6%
- viability, T/C [19]: 86.2%
- viability, T/C [20]: 74.3%
- viability, T/C [21]: 73.5%
- viability, T/C [22]: 65.5%
- viability, T/C [23]: 45.1%
- viability, T/C [24]: 33.4%
- viability, T/C [25]: 89.7%
- viability, T/C [26]: 83.9%
- viability, T/C [27]: 61.8%
- viability, T/C [28]: 62%
- viability, T/C [29]: 49.2%
- viability, T/C [30]: 32.8%
- viability, T/C [31]: 96.7%
- viability, T/C [32]: 74.8%
- viability, T/C [33]: 71.5%
- viability, T/C [34]: 50.5%
- viability, T/C [35]: 46.4%
- viability, T/C [36]: 37.3%
- viability, T/C [37]: 91.8%
- viability, T/C [38]: 85.7%
- viability, T/C [39]: 67.8%
- viability, T/C [40]: 46.7%
- viability, T/C [41]: 40.2%
- viability, T/C [42]: 39.6%

Compound: CCc1c2c(nc3ccc(O)cc13)-c1cc3c(c(=O)n1C2)COC(=O)[C@]3(O)CC
- viability, T/C (compound 0.00316 µM): 14.7% and 8.09% and 15.9%
- viability, T/C (compound 0.01 µM): 15.4% and 8.23% and 16.2%
- viability, T/C (compound 0.0316 µM): 15.1% and 8.92% and 18.4%
- viability, T/C (compound 0.1 µM): 18% and 6.71% and 16.7%
- viability, T/C (compound 0.316 µM): 14.7% and 5.07% and 16%
- viability, T/C (compound 1 µM): 4.2% and 2.5% and 5.57%
- IC50 (curve of compound): < 3.16 nM
